The text below walks through data of patent US6534501B2, “Allosteric inhibitors of pyruvate kinase” (Allos Therapeutics, Inc., priority 1998, dated 2003).

By IC50 is commonly meant the concentration at which inhibition is half-maximal. Broadly, the inhibition is the drop in the measured response relative to a control, in per cent. A low value points to little suppression. As usually defined, the melting point is the temperature, or range, at which the solid turns liquid.

In data set [1] the target is T1, Human Erythrocyte Pyruvate Kinase (R-PK) (Homo sapiens, UniProt P30613).
T1 construct: The four units of human whole blood obtained from the Blood Bank; from tissue
Description: PK activity assay coupled with lactate dehydrogenase (NADH oxidation at 340 nm). The settings on record: for IC50: stock solutions in DMSO, dose-response of FIG. 6, read-out: IC50 (R-PK inhibition). Type of data set: biochemical. As for the experimental part: PK activity was measured using the assay conditions that are recommended by the International Committee for Standardization in Hematology (ICSH). […] The positive cooperativity of substrate binding is clearly seen from the upward curvature in the Lineweaver plot. The experimental data were fit to the Hill equation. The derived parameters were K0.5S=2.37 mM and Hill coefficient (nH) of 1.41.
Phenlyalanine has long been known as an allosteric inhibitor of PK. […] It can be seen from FIG. 2 that an increase in the concentration of phenlyalanine results in a decreased affinity and a more pronounced sigmoidity of the substrate binding. When phenylalanine increases from 0 to 30 mM, the K0.5S increases by 2.5 folds and nH increases by 1.4 folds, respectively. To avoid fluctuations in measurement of PK parameters, all experiments reported herein and assays were performed using the same batch of preparation and under identical conditions.
PK activity is measured by coupling it with lactate dehydrogenase, which transforms pyruvate into lactate and oxidizes NADH into NAD. A reduction of oxidation of NADH is followed at 340 nm using the 96 well plate in a Spectramax spectrophotometer (Molecular Devices, Ca.).
The assay buffer (100 mM Tris pH 7.5) was prepared by dissolving TRIS 100 mM, KCl 100 mM, EDTA 0.5 mM, and 10 MM MgCl2 in deionized water. The pH of the solution was adjusted to 7.5 by adding a small amount of TRIS. The stock solution of NADH (20 mM), ADP 100 mM (neutralized), LDH 500 IU/ml and PEP 100 mM were prepared in the assay buffer. The following quantities of reagents were added to make 1 ml of assay solution.
The contents were mixed and incubated for five minutes at 37° C. Then, 50 μl of PEP was added and the absorbance changes were followed at 340 nm. The initial reaction velocity in AU/min was then calculated.
The control samples in each experiment were incubated under the same conditions as without any compound. In all cases, the experiments were begun after saturation with PEP. The percent inhibition of PK activity was calculated by subtracting the activity of the control sample from the activity in the presence of compound.
Compounds 4(1) through 4(12) thus obtained were tested.
The percent activity values presented in FIG. 5 represent an average of six independent experiments. All examined compounds were prepared as stock solutions in DMSO.
As a control for FIG. 5, the assay was performed with DMSO, but no compound.
Otherwise, the dose-response for R-PK in FIG. 5 in this Example 5 was performed as described in the above Examples.

Setting [2] is: compound concentration 0.5 mM, pH 7.5, 37° C., after saturation with PEP.
Where [3] appears, read: phenylalanine increases from 0 to 30 mM.
Where [4] appears, read: compound concentration 2 mM, pH 7.5, 37° C., after saturation with PEP.

A value given as a limit tells only on which side of the number the result lay.

T1 sequence (P30613 whole entry): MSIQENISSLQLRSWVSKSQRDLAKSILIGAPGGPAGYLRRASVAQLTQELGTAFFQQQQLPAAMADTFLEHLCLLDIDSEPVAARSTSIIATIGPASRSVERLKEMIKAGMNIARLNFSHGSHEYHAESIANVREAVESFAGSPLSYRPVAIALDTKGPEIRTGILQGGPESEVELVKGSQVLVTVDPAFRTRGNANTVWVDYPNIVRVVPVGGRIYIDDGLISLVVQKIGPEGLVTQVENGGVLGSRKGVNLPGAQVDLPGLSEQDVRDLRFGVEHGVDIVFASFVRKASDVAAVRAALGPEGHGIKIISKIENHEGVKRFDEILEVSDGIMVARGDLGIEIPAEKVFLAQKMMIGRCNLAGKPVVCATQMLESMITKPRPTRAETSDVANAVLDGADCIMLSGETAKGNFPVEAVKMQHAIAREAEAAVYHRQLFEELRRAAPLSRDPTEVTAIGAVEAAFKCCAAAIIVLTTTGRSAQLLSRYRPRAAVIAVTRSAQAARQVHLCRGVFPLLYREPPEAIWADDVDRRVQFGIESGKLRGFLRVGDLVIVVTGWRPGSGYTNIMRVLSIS

In the case of `COC(=O)c1cc(Oc2ccc(C(=O)OC)cc2NC(=O)c2cc(Cl)cc(Cl)c2)cc(C(=O)OC)c1` [(8), 5-[2-(3,5-Dichlorobenzoylamino)-4-methoxycarbonyl-phenoxy]-isophtahlic acid dimethyl ester], in data set [1], the IC50 came out at 9 µM.

Consider “3-(2-{1-(3-Chlorophenyl)-1(3-hydroxyphenyl)-ureido]-ethyl}-4-oxo-4H-quinazolin-3-yl)-propionic acid [(4)]”, for which the half-inhibitory concentration (IC50) in data set [1] is 16.1 µM.

On to `COC(=O)c1sc(-c2ccc(Cl)cc2)cc1NCc1ccccc1` [(7), 3-Benzylamino-5-(4-chlorophenyl)-4H-1λ^4-thiophene-2-carboxylic acid methyl ester], for which the half-maximal inhibitory concentration (IC50) in data set [1] turned out to be 16.9 µM.

Turning to `COc1ccc(OCCCCCC(=O)O)c(C=O)c1` [TB 88, 6-(2-formyl-4-methoxyphenoxy)hexanoic acid], the inhibition at 500 µM in data set [1] (setting [2]) was 16%. In addition, in data set [1] (compound concentration 2.5 mM, pH 7.5, 37° C., after saturation with PEP), the inhibition at 2500 µM was found to be 28%.

`N[C@@H](Cc1ccccc1)C(=O)O` [L-Phenylalanine, reference compound] registered an inhibition at 10000 µM in data set [1] (compound concentration 10 mM, pH 7.5, 37° C., after saturation with PEP) of 15%. Also, 30000 µM produced 72% inhibition in data set [1] (compound concentration 30 mM, pH 7.5, 37° C., after saturation with PEP). Also, in data set [1] (setting [3]), the “increase of Hill coefficient nH” value is recorded as 1.4 folds and the “increase of K0.5S (PEP)” value came out at 2.5 folds.

Regarding `O=c1oc(Nc2ccc(Cl)cc2)nc2ccccc12` [(3), 2-(4-Chloro-phenylamino)-benzo[d][1,3]oxazin-4-one], the IC50 in data set [1] was 20.9 µM.

Turning to `COC(=O)c1cc(Oc2ccc(C(=O)OC)cc2NC(=O)NC2CCCCC2)cc(C(=O)OC)c1` [(9), 5-[2-(3-Cyclohexyl-ureido)-4-methoxycarbonyl-phenoxy]-isophtahlic acid dimethyl ester], the IC50 in data set [1] is 9.4 µM.

As to “2-phenylethyloxy-5-formylbenzoic acid [TB 32]”, the “% PK Inhibition” value in data set [1] (setting [2]) is 48%; in data set [1] (setting [4]), 77%; in data set [1] (compound concentration 3 mM, pH 7.5, 37° C., after saturation with PEP), 80%.

For the compound `CCc1nc2ccccc2c(=O)n1CCc1cn(COC(=O)CCl)c2ccccc12` [(6), Chloroacetic acid 3-[2-(2-ethyl-4-oxo-4H-quinazolin-3-yl)ethyl]-indol-lylmethylester], the IC50 in data set [1] stood at 12.1 µM.

On to `Cc1cccc2nc3cccc(C(=O)Nc4ccccc4C(=O)O)c3nc12` [(2), 2-[(9-Methyl-phenazine-1-carbonyl)-amino]-benzoic acid], for which, in data set [1], the half-inhibitory concentration (IC50) was determined as 8.9 µM.

`Cc1ccc(OCCCCCC(=O)O)c(C=O)c1` [TB 154, 6-(2-formyl-4-methylphenoxy)hexanoic acid] gave a melting point of 97 to 99 °C. For the same compound, the inhibition at 500 µM in data set [1] (setting [2]) turned out to be 19%. The compound also gave an inhibition at 2000 µM in data set [1] (setting [4]) of 28%.

As to “2-(9-Ethyl-9H-carbazol-3-ylvinylideneamino)-1-(4-nitrobenzoate) [(5)]”, the IC50 in data set [1] was found to be 17.4 µM.

With `CCCCN(Cc1c2ccccc2c(Cl)c2ccccc12)C(=O)NCC(=O)OCC` [(1), [3-Butyl-3-(10-chloro-anthracen-9-ylmethyl)-ureido]-acetic acid ethyl ester], in data set [1], the 50% inhibitory concentration (IC50) was more than 50 µM.

In the case of `CCC(CCCCC(=O)O)Oc1ccc([N+](=O)[O-])cc1C=O` (stereo not shown) [TDD 57, 6-(2-formyl-4-nitrophenoxy)octanoic Acid], in data set [1] (setting [2]), 500 µM produced 36% inhibition.
